Laboratory results as given in the kinase profiling compilation of Christmann-Franck et al. (2016).

Columns and labels:
Assay in all cases: radiometric filter-binding kinase assay
[1] = target: PRKAA1 PRKAB2 PRKAG1 (human) (UniProt O43741+Q13131+P54619)
TTBK2 (human) = TTBK2 (human) (UniProt Q6IQ55)
ULK1 (human) = ULK1 (human) (UniProt O75385)
SIK2 (human) = SIK2 (human) (UniProt Q9H0K1)
ABL1 (human) = ABL1 (human) (UniProt P00519)
WNK1 (human) = WNK1 (human) (UniProt Q9H4A3)
CSNK1G2 (human) = CSNK1G2 (human) (UniProt P78368)
[2] = system: OXSR1 (human), O95747 [T185E]
TTBK1 (human) = TTBK1 (human) (UniProt Q5TCY1)
CHEK2 (human) = CHEK2 (human) (UniProt O96017)
MAP4K3 (human) = MAP4K3 (human) (UniProt Q8IVH8)
PDGFRA (human) = PDGFRA (human) (UniProt P16234)
PRKCG (human) = PRKCG (human) (UniProt P05129)
TLK1 (human) = TLK1 (human) (UniProt Q9UKI8)
IRAK1 (human) = IRAK1 (human) (UniProt P51617)
STK33 (human) = STK33 (human) (UniProt Q9BYT3)
SIK3 (human) = SIK3 (human) (UniProt Q9Y2K2)
TEK (human) = TEK (human) (UniProt Q02763)
EIF2AK3 (human) = EIF2AK3 (human) (UniProt Q9NZJ5)
STK24 (human) = STK24 (human) (UniProt Q9Y6E0); settings: compound 1.0 µM
TESK1 (human) = TESK1 (human) (UniProt Q15569)
STK16 (human) = STK16 (human) (UniProt O75716)
ULK2 (human) = ULK2 (human) (UniProt Q8IYT8)
MARK3 (human) = MARK3 (human) (UniProt P27448)
PTK6 (human) = PTK6 (human) (UniProt Q13882)
ZAP70 (human) = ZAP70 (human) (UniProt P43403)
CDK9 CCNT1 (human) = CDK9 CCNT1 (human) (UniProt P50750+O60563)
DDR2 (human) = DDR2 (human) (UniProt Q16832)
TSSK1B (human) = TSSK1B (human) (UniProt Q9BXA7)
MAP4K5 (human) = MAP4K5 (human) (UniProt Q9Y4K4)

Chain of TSSK1B (human) (Q9BXA7 whole entry, looked up): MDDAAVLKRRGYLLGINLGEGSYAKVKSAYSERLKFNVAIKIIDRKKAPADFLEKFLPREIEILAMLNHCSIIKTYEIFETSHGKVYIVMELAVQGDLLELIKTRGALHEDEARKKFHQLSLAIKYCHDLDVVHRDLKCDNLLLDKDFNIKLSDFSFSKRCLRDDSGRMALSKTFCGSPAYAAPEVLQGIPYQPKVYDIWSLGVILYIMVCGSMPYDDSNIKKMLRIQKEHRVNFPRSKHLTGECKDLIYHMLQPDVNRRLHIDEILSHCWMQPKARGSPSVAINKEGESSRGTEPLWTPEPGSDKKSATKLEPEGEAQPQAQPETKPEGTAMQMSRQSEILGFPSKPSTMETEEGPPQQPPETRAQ
Chain of SIK2 (human) (Q9H0K1 whole entry, looked up): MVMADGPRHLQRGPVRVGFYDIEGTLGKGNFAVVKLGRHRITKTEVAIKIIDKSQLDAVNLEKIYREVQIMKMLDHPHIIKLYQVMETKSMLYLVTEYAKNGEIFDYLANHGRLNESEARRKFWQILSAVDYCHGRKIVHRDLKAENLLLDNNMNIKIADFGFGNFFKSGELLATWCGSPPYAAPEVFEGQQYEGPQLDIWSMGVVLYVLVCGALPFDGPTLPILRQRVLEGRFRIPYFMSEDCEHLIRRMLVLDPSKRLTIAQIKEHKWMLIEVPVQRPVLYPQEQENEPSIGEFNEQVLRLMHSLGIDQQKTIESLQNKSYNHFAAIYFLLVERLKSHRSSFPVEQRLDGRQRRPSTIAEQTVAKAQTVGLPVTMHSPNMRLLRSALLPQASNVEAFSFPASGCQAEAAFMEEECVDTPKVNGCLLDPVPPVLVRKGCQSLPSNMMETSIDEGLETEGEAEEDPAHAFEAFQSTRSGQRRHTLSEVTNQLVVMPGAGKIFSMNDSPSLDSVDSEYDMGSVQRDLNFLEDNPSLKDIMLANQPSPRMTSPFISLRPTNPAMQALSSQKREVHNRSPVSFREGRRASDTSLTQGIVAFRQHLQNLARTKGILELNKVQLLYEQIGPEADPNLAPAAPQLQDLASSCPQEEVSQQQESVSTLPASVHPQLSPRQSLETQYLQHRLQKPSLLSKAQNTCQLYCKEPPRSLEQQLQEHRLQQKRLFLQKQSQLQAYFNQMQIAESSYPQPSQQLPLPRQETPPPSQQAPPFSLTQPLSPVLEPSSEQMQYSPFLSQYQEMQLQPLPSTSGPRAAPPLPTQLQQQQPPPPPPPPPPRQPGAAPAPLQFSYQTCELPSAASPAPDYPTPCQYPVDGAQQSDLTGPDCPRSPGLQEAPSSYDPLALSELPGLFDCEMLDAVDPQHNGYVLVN
Chain of IRAK1 (human) (P51617 whole entry, looked up): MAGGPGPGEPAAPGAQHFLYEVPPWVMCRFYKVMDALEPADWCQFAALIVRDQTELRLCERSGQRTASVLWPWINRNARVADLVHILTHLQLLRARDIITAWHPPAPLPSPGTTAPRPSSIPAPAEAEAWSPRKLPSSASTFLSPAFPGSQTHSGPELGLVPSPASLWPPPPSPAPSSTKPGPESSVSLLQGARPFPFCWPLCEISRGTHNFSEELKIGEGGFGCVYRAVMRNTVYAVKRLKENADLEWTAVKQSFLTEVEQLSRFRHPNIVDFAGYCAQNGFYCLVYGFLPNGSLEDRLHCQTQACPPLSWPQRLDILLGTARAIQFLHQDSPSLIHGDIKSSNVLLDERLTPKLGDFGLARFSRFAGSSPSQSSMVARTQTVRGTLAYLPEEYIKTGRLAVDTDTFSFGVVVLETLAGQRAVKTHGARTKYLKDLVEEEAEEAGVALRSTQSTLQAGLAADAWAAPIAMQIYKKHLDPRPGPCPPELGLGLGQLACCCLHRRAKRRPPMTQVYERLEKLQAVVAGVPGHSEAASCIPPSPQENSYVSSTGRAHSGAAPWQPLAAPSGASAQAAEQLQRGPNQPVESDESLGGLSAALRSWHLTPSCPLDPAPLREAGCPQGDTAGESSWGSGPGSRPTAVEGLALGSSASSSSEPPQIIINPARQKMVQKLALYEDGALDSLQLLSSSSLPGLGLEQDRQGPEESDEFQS
Chain of ABL1 (human) (P00519 whole entry, looked up): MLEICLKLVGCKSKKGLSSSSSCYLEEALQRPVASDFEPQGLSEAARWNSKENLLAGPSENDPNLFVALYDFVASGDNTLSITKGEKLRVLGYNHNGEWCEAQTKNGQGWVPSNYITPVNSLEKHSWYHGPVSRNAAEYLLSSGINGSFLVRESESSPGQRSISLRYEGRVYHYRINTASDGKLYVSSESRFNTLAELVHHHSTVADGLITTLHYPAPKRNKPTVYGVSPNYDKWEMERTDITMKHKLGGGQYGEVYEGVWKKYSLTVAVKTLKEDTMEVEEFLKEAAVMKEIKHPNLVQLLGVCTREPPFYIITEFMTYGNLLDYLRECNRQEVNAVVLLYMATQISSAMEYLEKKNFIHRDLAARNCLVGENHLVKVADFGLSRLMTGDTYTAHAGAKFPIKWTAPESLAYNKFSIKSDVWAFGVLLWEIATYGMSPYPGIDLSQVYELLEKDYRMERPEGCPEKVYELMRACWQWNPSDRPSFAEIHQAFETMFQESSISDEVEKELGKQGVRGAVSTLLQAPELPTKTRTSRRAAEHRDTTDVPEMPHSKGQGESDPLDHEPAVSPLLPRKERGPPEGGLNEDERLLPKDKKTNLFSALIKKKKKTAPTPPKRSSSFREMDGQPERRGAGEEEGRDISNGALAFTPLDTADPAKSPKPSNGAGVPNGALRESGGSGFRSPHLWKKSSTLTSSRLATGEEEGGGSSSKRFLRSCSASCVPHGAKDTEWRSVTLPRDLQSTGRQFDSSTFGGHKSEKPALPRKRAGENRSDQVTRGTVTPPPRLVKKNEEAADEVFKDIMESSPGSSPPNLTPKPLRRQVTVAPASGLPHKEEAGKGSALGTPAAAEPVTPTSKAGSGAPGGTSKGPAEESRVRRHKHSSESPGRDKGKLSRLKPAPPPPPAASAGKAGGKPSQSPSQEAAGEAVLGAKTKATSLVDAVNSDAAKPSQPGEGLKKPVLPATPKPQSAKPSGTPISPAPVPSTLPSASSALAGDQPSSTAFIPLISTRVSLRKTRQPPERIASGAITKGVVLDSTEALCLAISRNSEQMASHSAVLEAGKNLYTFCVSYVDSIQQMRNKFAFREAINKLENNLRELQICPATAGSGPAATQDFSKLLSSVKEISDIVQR
Chain of OXSR1 (human), O95747 [T185E] (O95747 whole entry T185E, looked up): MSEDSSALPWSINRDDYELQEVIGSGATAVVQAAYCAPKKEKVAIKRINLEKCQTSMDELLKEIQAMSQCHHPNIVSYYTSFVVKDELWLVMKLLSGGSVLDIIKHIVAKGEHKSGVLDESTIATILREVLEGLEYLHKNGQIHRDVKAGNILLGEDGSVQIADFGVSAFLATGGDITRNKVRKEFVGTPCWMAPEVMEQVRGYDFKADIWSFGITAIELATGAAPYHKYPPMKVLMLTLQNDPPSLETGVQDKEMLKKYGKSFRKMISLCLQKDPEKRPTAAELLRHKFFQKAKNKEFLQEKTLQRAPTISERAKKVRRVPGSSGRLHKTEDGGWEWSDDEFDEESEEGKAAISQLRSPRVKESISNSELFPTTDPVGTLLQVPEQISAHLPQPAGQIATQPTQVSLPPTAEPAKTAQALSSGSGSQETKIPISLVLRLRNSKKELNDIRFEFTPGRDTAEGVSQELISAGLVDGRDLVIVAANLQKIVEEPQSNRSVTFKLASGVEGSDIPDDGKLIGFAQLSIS
Chain of PRKAA1 PRKAB2 PRKAG1 (human) (O43741 whole entry, looked up): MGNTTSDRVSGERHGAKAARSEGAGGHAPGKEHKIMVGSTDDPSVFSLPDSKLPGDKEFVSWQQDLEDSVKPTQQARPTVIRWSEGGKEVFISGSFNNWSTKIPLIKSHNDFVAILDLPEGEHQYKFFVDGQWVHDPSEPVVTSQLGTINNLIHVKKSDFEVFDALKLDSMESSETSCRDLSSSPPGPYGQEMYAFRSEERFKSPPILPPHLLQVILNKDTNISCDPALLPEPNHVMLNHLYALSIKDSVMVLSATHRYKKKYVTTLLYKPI
Chain of PRKAA1 PRKAB2 PRKAG1 (human) (P54619 whole entry, looked up): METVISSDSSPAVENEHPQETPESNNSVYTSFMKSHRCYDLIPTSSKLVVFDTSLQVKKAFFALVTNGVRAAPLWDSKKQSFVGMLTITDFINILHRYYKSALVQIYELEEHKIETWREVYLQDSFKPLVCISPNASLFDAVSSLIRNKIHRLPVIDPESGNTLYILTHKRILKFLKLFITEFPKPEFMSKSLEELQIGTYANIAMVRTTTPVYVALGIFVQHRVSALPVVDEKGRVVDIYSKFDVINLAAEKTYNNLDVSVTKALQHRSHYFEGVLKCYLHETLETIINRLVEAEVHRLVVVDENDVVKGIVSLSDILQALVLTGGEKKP
Chain of PRKAA1 PRKAB2 PRKAG1 (human) (Q13131 whole entry, looked up): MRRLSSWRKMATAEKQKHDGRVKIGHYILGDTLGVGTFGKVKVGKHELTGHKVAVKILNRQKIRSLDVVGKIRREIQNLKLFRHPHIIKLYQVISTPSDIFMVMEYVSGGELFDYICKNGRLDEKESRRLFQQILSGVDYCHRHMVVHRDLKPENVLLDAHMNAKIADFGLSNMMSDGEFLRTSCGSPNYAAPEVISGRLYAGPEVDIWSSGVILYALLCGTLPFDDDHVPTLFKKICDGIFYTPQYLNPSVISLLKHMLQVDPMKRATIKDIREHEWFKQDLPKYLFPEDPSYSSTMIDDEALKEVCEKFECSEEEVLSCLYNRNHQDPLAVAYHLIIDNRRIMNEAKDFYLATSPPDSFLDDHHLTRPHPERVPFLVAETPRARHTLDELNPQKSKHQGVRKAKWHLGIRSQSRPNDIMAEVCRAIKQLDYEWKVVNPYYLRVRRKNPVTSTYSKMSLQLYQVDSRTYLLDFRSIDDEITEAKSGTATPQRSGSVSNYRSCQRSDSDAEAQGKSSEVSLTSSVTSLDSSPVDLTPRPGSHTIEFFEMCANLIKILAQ

Cc1ccc(-c2ccc3c(ccc4sc5c(c43)NC[C@@H](C)NC5=O)n2)cn1 showed a residual activity ([1]; compound 0.1 µM) of 68%, a residual activity ([1]; compound 1.0 µM) of 21% and a residual activity ([1]; compound 10.0 µM) of 6%. It also gave a residual activity (TTBK2 (human); compound 0.1 µM) of 122%, a residual activity (TTBK2 (human); compound 1.0 µM) of 122% and a residual activity (TTBK2 (human); compound 10.0 µM) of 103%. For the same molecule, the residual activity (ULK1 (human); compound 0.1 µM) was 115%, the residual activity (ULK1 (human); compound 1.0 µM) was 89% and the residual activity (ULK1 (human); compound 10.0 µM) was 75%. The residual activity (SIK2 (human); compound 0.1 µM) was 99%, the residual activity (SIK2 (human); compound 1.0 µM) was 86% and the residual activity (SIK2 (human); compound 10.0 µM) was 77%. It also gave a residual activity (ABL1 (human); compound 0.1 µM) of 120%, a residual activity (ABL1 (human); compound 1.0 µM) of 113% and a residual activity (ABL1 (human); compound 10.0 µM) of 76%. For the same molecule, the residual activity (WNK1 (human); compound 0.1 µM) was 113%, the residual activity (WNK1 (human); compound 1.0 µM) was 108% and the residual activity (WNK1 (human); compound 10.0 µM) was 119%. For the same molecule, the residual activity (CSNK1G2 (human); compound 0.1 µM) was 123%, the residual activity (CSNK1G2 (human); compound 1.0 µM) was 112% and the residual activity (CSNK1G2 (human); compound 10.0 µM) was 102%. For the same molecule, the residual activity ([2]; compound 0.1 µM) was 113%, the residual activity ([2]; compound 1.0 µM) was 112% and the residual activity ([2]; compound 10.0 µM) was 118%. It also gave a residual activity (TTBK1 (human); compound 0.1 µM) of 103%, a residual activity (TTBK1 (human); compound 1.0 µM) of 104% and a residual activity (TTBK1 (human); compound 10.0 µM) of 96%. For the same molecule, the residual activity (CHEK2 (human); compound 0.1 µM) was 112%, the residual activity (CHEK2 (human); compound 1.0 µM) was 51% and the residual activity (CHEK2 (human); compound 10.0 µM) was 9%. For the same molecule, the residual activity (MAP4K3 (human); compound 0.1 µM) was 98%, the residual activity (MAP4K3 (human); compound 1.0 µM) was 72% and the residual activity (MAP4K3 (human); compound 10.0 µM) was 41%. For the same molecule, the residual activity (PDGFRA (human); compound 0.1 µM) was 104%, the residual activity (PDGFRA (human); compound 1.0 µM) was 108% and the residual activity (PRKCG (human); compound 0.1 µM) was 118%. It also gave a residual activity (PRKCG (human); compound 1.0 µM) of 110%, a residual activity (PRKCG (human); compound 10.0 µM) of 101% and a residual activity (TLK1 (human); compound 0.1 µM) of 113%. It also gave a residual activity (TLK1 (human); compound 1.0 µM) of 107%, a residual activity (TLK1 (human); compound 10.0 µM) of 100% and a residual activity (IRAK1 (human); compound 0.1 µM) of 104%. It also gave a residual activity (IRAK1 (human); compound 1.0 µM) of 77%, a residual activity (IRAK1 (human); compound 10.0 µM) of 27% and a residual activity (STK33 (human); compound 0.1 µM) of 105%. It also gave a residual activity (STK33 (human); compound 1.0 µM) of 83%, a residual activity (STK33 (human); compound 10.0 µM) of 38% and a residual activity (SIK3 (human); compound 0.1 µM) of 98%. The residual activity (SIK3 (human); compound 1.0 µM) was 99%, the residual activity (SIK3 (human); compound 10.0 µM) was 73% and the residual activity (TEK (human); compound 0.1 µM) was 105%. The residual activity (TEK (human); compound 1.0 µM) was 86%, the residual activity (TEK (human); compound 10.0 µM) was 88% and the residual activity (EIF2AK3 (human); compound 0.1 µM) was 114%. The residual activity (EIF2AK3 (human); compound 1.0 µM) was 101%, the residual activity (EIF2AK3 (human); compound 10.0 µM) was 73% and the residual activity (STK24 (human)) was 109%. For the same molecule, the residual activity (TESK1 (human); compound 0.1 µM) was 112%, the residual activity (TESK1 (human); compound 1.0 µM) was 111% and the residual activity (TESK1 (human); compound 10.0 µM) was 101%. The residual activity (STK16 (human); compound 0.1 µM) was 117%, the residual activity (STK16 (human); compound 1.0 µM) was 118% and the residual activity (STK16 (human); compound 10.0 µM) was 105%. The residual activity (ULK2 (human); compound 0.1 µM) was 109%, the residual activity (ULK2 (human); compound 10.0 µM) was 54% and the residual activity (MARK3 (human); compound 0.1 µM) was 113%. The residual activity (MARK3 (human); compound 1.0 µM) was 115%, the residual activity (PTK6 (human); compound 0.1 µM) was 121% and the residual activity (PTK6 (human); compound 1.0 µM) was 94%. It also gave a residual activity (PTK6 (human); compound 10.0 µM) of 92%, a residual activity (ZAP70 (human); compound 0.1 µM) of 93% and a residual activity (ZAP70 (human); compound 1.0 µM) of 100%. The residual activity (CDK9 CCNT1 (human); compound 0.1 µM) was 109%, the residual activity (CDK9 CCNT1 (human); compound 1.0 µM) was 96% and the residual activity (CDK9 CCNT1 (human); compound 10.0 µM) was 51%. It also gave a residual activity (DDR2 (human); compound 0.1 µM) of 105%, a residual activity (DDR2 (human); compound 1.0 µM) of 101% and a residual activity (DDR2 (human); compound 10.0 µM) of 91%. The residual activity (TSSK1B (human); compound 0.1 µM) was 97%, the residual activity (TSSK1B (human); compound 1.0 µM) was 85% and the residual activity (TSSK1B (human); compound 10.0 µM) was 89%. The residual activity (MAP4K5 (human); compound 0.1 µM) was 111%, the residual activity (MAP4K5 (human); compound 1.0 µM) was 108% and the residual activity (MAP4K5 (human); compound 10.0 µM) was 61%.
